These are literature values, as cited in PubChem BioAssay AID1259409 (Chemical Carcinogenesis Research Information System (CCRIS), 2018).

“And” between values parts separate entries of the source, which are not always exact repeats. Identical values can stand only once.

For the data set, the system named is rodent chemically induced tumor inhibition, incidence and multiplicity. As to the kind of experiment: CCRIS tumor inhibitor studies. Conditions: Route [Inhibitor]: ORAL.

Regarding `CSCCC(N)C(=O)O` (configuration not stated), the “tumour outcome (control, treated, inhibition, significance)” value is 7/15 (47%), 8/15 (53%), -13%, not calculated and 7/9 (78%), 8/12 (67%), 14%, not calculated (Carcinogen: 3'-METHYL-4-DIMETHYLAMINOAZOBENZENE, 55-80-1, Dose [Inhibitor]: 0.72% IN DIET DAILY FOR 4 WK STARTING AFTER COMPLETION OF THE FIRST 4 WK OF CARCINOGEN TREATMENT (STUDY DURATION: 20 WK), Species: RAT, Target Tissue: Type of Lesion: LIVER: TUMOR, Dose [Carcinogen]: 0.064% IN DIET DAILY FOR 8 WK, 4 WK BEFORE AND ANOTHER 4 WK AFTER AGENT TREATMENT, Promoter: NONE USED); 48/80 (60%), 18/20 (90%), -50%, not calculated (Carcinogen: 4-DIMETHYLAMINOAZOBENZENE, 60-11-7, Dose [Inhibitor]: 0.5% OF DIET DAILY STARTING SIMULTANEOUSLY WITH CARCINOGEN TREATMENT AND CONTINUING THROUGH END OF STUDY (STUDY DURATION, Species: RAT, Strain/Sex: OSBORNE-MENDEL/MALE, Target Tissue: Type of Lesion: LIVER: MALIGNANT TUMOR, Dose [Carcinogen]: 0.06% OF DIET DAILY, Promoter: NONE USED); 5/32 (16%), 2/34 (6%), 63%, not significant (Carcinogen: 7,12-DIMETHYLBENZ[A]ANTHRACENE, 57-97-6, Dose [Inhibitor]: 0.5% DIET FOR 1 YR STARTING 5 D PRIOR TO CARCINOGEN TREATMENT (STUDY DURATION: 1 YR), Species: RAT, Strain/Sex: ALBINO/FEMALE, Target Tissue: Type of Lesion: HEMATPOIETIC SYSTEM: LEUKEMIA, Dose [Carcinogen]: 1.5 MG 1/WK FOR 3 WK, Promoter: NONE USED); 22/32 (69%), 6/34 (18%), 74%, p<0.0001 (Carcinogen: 7,12-DIMETHYLBENZ[A]ANTHRACENE, 57-97-6, Dose [Inhibitor]: 0.5% DIET FOR 1 YR STARTING 5 D PRIOR TO CARCINOGEN TREATMENT (STUDY DURATION: 1 YR), Species: RAT, Strain/Sex: ALBINO/FEMALE, Target Tissue: Type of Lesion: MAMMARY GLAND: ADENOCARCINOMA, Dose [Carcinogen]: 1.5 MG 1/WK FOR 3 WK, Promoter: NONE USED); 21/32 (66%), 14/32 (41%), 38%, p 0.025 (Carcinogen: 7,12-DIMETHYLBENZ[A]ANTHRACENE, 57-97-6, Dose [Inhibitor]: 0.5% DIET FOR 1 YR STARTING 5 D PRIOR TO CARCINOGEN TREATMENT (STUDY DURATION: 1 YR), Species: RAT, Strain/Sex: ALBINO/FEMALE, Target Tissue: Type of Lesion: MAMMARY GLAND: FIBROADENOMA, Dose [Carcinogen]: 1.5 MG 1/WK FOR 3 WK, Promoter: NONE USED); 5/32 (16%), 6/34 (18%), -13%, not significant (Carcinogen: 7,12-DIMETHYLBENZ[A]ANTHRACENE, 57-97-6, Dose [Inhibitor]: 0.5% DIET FOR 1 YR STARTING 5 D PRIOR TO CARCINOGEN TREATMENT (STUDY DURATION: 1 YR), Species: RAT, Strain/Sex: ALBINO/FEMALE, Target Tissue: Type of Lesion: ZYMBAL'S GLAND: CARCINOMA, Dose [Carcinogen]: 1.5 MG 1/WK FOR 3 WK, Promoter: NONE USED). Moreover, the “tumour outcome (control, treated, inhibition, significance)” value by setting is: (Carcinogen: DIETHYLNITROSAMINE, 55-18-5, Dose [Inhibitor]: 0, 1.5% IN DIET BEGINNING 1 WK POST CARCINOGEN DOSE (STUDY DURATION: 52 WK), Species: MOUSE, Strain/Sex: C3H/MALE, Target Tissue: Type of Lesion: LIVER: ADENOMA, Dose [Carcinogen]: 150 MG/KG ONCE, Promoter: NONE USED) 14%, 9%, 36%, not calculated; (Carcinogen: DIETHYLNITROSAMINE, 55-18-5, Dose [Inhibitor]: 0, 1.5% IN DIET BEGINNING 1 WK POST CARCINOGEN DOSE (STUDY DURATION: 52 WK), Species: MOUSE, Strain/Sex: C3H/MALE, Target Tissue: Type of Lesion: LIVER: ADENOMA, Dose [Carcinogen]: 150 MG/KG ONCE, Promoter: PHENOBARBITAL, 50-06-6) 16%, 22%, -38%, not calculated; (Carcinogen: DIETHYLNITROSAMINE, 55-18-5, Dose [Inhibitor]: 0, 1.5% IN DIET BEGINNING 1 WK POST CARCINOGEN DOSE (STUDY DURATION: 52 WK), Species: MOUSE, Strain/Sex: C3H/MALE, Target Tissue: Type of Lesion: LIVER: CARCINOMA, Dose [Carcinogen]: 150 MG/KG ONCE, Promoter: NONE USED) 71%, 77%, -8%, not calculated; (Carcinogen: DIETHYLNITROSAMINE, 55-18-5, Dose [Inhibitor]: 0, 1.5% IN DIET BEGINNING 1 WK POST CARCINOGEN DOSE (STUDY DURATION: 52 WK), Species: MOUSE, Strain/Sex: C3H/MALE, Target Tissue: Type of Lesion: LIVER: CARCINOMA, Dose [Carcinogen]: 150 MG/KG ONCE, Promoter: PHENOBARBITAL, 50-06-6) 74%, 33%, 55%, p<0.01; (Carcinogen: DIETHYLNITROSAMINE, 55-18-5, Dose [Inhibitor]: 0, 1.5% IN DIET BEGINNING 1 WK POST CARCINOGEN DOSE (STUDY DURATION: 52 WK), Species: MOUSE, Strain/Sex: C3H/MALE, Target Tissue: Type of Lesion: LUNG: ADENOMA OR ADENOCARCINOMA, Dose [Carcinogen]: 150 MG/KG ONCE, Promoter: NONE USED) 6/14 (43%), 12/22 (55%), -28%, not calculated; (Carcinogen: DIETHYLNITROSAMINE, 55-18-5, Dose [Inhibitor]: 0, 1.5% IN DIET BEGINNING 1 WK POST CARCINOGEN DOSE (STUDY DURATION: 52 WK), Species: MOUSE, Strain/Sex: C3H/MALE, Target Tissue: Type of Lesion: LUNG: ADENOMA OR ADENOCARCINOMA, Dose [Carcinogen]: 150 MG/KG ONCE, Promoter: PHENOBARBITAL, 50-06-6) 7/19 (37%), 0/9 (0%), 100%, not calculated. The “tumour outcome (control, treated, inhibition, significance)” value is 9/9 (100%), 2/8 (25%), 75%, not calculated (Carcinogen: ETHIONINE, 13073-35-3, Dose [Inhibitor]: 1.35 MMOL/100 G DIET DAILY FOR 4.5 MO ADMINISTERED SIMULTANEOUSLY WITH CARCINOGEN FOLLOWED BY NORMAL STOCK DIET FOR REMA, Species: RAT, Strain/Sex: WISTAR/MALE, Target Tissue: Type of Lesion: LIVER: CARCINOMA, Dose [Carcinogen]: 0.25% OF DIET DAILY FOR 8 MO, Promoter: NONE USED); 9/10 (90%), 5/10 (50%), 44%, not calculated (Carcinogen: ETHIONINE, 13073-35-3, Dose [Inhibitor]: 2 MMOL/100 G DIET DAILY FOR 8 MO ADMINISTERED SIMULTANEOUSLY WITH CARCINOGEN FOLLOWED BY 2 MO ON NORMAL STOCK DIET (STUD, Species: RAT, Strain/Sex: WISTAR/MALE, FEMALE, Target Tissue: Type of Lesion: LIVER: CARCINOMA, Dose [Carcinogen]: 0.25% OF DIET DAILY FOR 8 MO, Promoter: NONE USED); 9/9 (100%), 0/10 (0%), 100%, not calculated (Carcinogen: ETHIONINE, 13073-35-3, Dose [Inhibitor]: 4 MMOL/100 G DIET DAILY FOR 4.5 MO ADMINISTERED SIMULTANEOUSLY WITH CARCINOGEN FOLLOWED BY NORMAL STOCK DIET FOR REMAIND, Species: RAT, Strain/Sex: WISTAR/MALE, Target Tissue: Type of Lesion: LIVER: CARCINOMA, Dose [Carcinogen]: 0.25% OF DIET DAILY FOR 8 MO, Promoter: NONE USED); 8/8 (100%), 0/9 (0%), 100%, not calculated (Carcinogen: ETHIONINE, 13073-35-3, Dose [Inhibitor]: 4 MMOL/100 G DIET DAILY FOR 8 MO ADMINISTERED SIMULTANEOUSLY WITH CARCINOGEN FOLLOWED BY 4 MO ON BASAL DIET (STUDY DURAT, Species: RAT, Strain/Sex: WISTAR/MALE, Target Tissue: Type of Lesion: LIVER: CARCINOMA, Dose [Carcinogen]: 0.25% OF DIET DAILY FOR 12 MO, Promoter: NONE USED); 9/9 (100%), 0/10 (0%), 100%, not calculated (Carcinogen: ETHIONINE, 13073-35-3, Dose [Inhibitor]: 5.4 MMOL/100 G DIET DAILY FOR 4.5 MO ADMINISTERED SIMULTANEOUSLY WITH CARCINOGEN FOLLOWED BY NORMAL STOCK DIET FOR REMAI, Species: RAT, Strain/Sex: WISTAR/MALE, Target Tissue: Type of Lesion: LIVER: CARCINOMA, Dose [Carcinogen]: 0.25% OF DIET DAILY FOR 8 MO, Promoter: NONE USED); 8/8 (100%), 0/9 (0%), 100%, not calculated (Carcinogen: ETHIONINE, 13073-35-3, Dose [Inhibitor]: 5.4 MMOL/100 G DIET DAILY FOR 8 MO ADMINISTERED SIMULTANEOUSLY WITH CARCINOGEN FOLLOWED BY 4 MO ON BASAL DIET (STUDY DUR, Species: RAT, Strain/Sex: WISTAR/MALE, Target Tissue: Type of Lesion: LIVER: CARCINOMA, Dose [Carcinogen]: 0.25% OF DIET DAILY FOR 12 MO, Promoter: NONE USED). The “tumour outcome (control, treated, inhibition, significance)” value by setting is: (Carcinogen: N-METHYL-N-NITROSOUREA, 684-93-5, Dose [Inhibitor]: 0.5% DIET FOR 1 YR STARTING 5 D PRIOR TO CARCINOGEN TREATMENT (STUDY DURATION: 1 YR), Species: RAT, Strain/Sex: ALBINO/FEMALE, Target Tissue: Type of Lesion: HEMATOPOIETIC SYSTEM: LEUKEMIA, Dose [Carcinogen]: 50 MG/KG 1/WK FOR 2 WK, Promoter: NONE USED) 9/28 (32%), 5/29 (17%), 47%, not significant; (Carcinogen: N-METHYL-N-NITROSOUREA, 684-93-5, Dose [Inhibitor]: 0.5% DIET FOR 1 YR STARTING 5 D PRIOR TO CARCINOGEN TREATMENT (STUDY DURATION: 1 YR), Species: RAT, Strain/Sex: ALBINO/FEMALE, Target Tissue: Type of Lesion: KIDNEY: MESENCHYMAL TUMOR, Dose [Carcinogen]: 50 MG/KG 1/WK FOR 2 WK, Promoter: NONE USED) 15/28 (54%), 17/29 (59%), -9%, not significant; (Carcinogen: N-METHYL-N-NITROSOUREA, 684-93-5, Dose [Inhibitor]: 0.5% DIET FOR 1 YR STARTING 5 D PRIOR TO CARCINOGEN TREATMENT (STUDY DURATION: 1 YR), Species: RAT, Strain/Sex: ALBINO/FEMALE, Target Tissue: Type of Lesion: MAMMARY GLAND: ADENOCARCINOMA, Dose [Carcinogen]: 50 MG/KG 1/WK FOR 2 WK, Promoter: NONE USED) 9/28 (32%), 4/29 (14%), 56%, p 0.05; (Carcinogen: N-METHYL-N-NITROSOUREA, 684-93-5, Dose [Inhibitor]: 0.5% DIET FOR 1 YR STARTING 5 D PRIOR TO CARCINOGEN TREATMENT (STUDY DURATION: 1 YR), Species: RAT, Strain/Sex: ALBINO/FEMALE, Target Tissue: Type of Lesion: MAMMARY GLAND: FIBROADENOMA, Dose [Carcinogen]: 50 MG/KG 1/WK FOR 2 WK, Promoter: NONE USED) 5/28 (18%), 6/29 (21%), -17%, not significant.
